Assay results from US20080312150A1 (priority 1999, published 2008).

Legend:
[1] = tested on: LNCaP (human prostate cancer) cells; test: PDT long-term survival by colony formation assay; format: cell-based; conditions: 514 nm light
Experimental: (§1) LNCaP (human prostate cancer) cells were treated with methotrexate (1 μg/ml) for 72 hours. The cells were then incubated with 0.3 mM ALA for 4 hours. After ALA treatment, cells were either used for quantification of PpIX or exposed to 514 nm light. […] This enhancement of PDT by chemotherapy can also be seen when long-term survival was assessed by colony formation assay (FIG. 6B). Here, the 50% levels are reached at 25 J/cm2, compared to 2 J/cm2. […] Chemotherapeutic effect was also confirmed using cyclophosphamide.

[2] = tested on: human skin; test: Fluorescence micrograph of ALA-induced PpIX in human skin; conditions: human skin incubated in ALA for 4 hours
[3] = tested on: LNCaP cells; test: PDT using ALA-induced PpIX, cell survival (MTT conversion assay); format: cell-based, human; conditions: for light dose to reduce cell survival by 50% (MTT): 514 nm light; for survival after PDT: versus no pretreatment
Experimental: ALA-induced PpIX for PDT of LNCaP cells with (circles) or without (triangles) pretreatment for 72 hours with 10^−7 M R1881. The cells were incubated with ALA concentrations from 0.1 to 1.0 mM for four hours prior to exposure to 10 J/cm^2 of 514 nm light.
PDT using ALA-induced PpIX in LNCaP cells with (circles) or without (triangles) pretreatment for 72 hours with 10^−7 M R1881. The cells were incubated with 0.3 mM ALA for four hours prior to exposure to 3-20 J/cm^2 of 514 nm light.
as §1

[4] = tested on: LNCaP cells; test: Confocal laser scanning microscopy of PPIX fluorescence in living cells; format: cell-based, human; conditions: 10^−7 M R1881 72 hours, then 0.3 mM ALA 4 hours; excitation 488 nm
Experimental: LNCaP cells were pretreated with 10^−7 M R1881 for 72 hours or with vehicle, and then incubated with 0.3 mM ALA. At 4 hours the living cells were imaged using the confocal laser scanning microscope. Excitation was at 488 nm and both green (auto fluorescence) and red (PPIX) fluorescence was recorded and combined.

[5] = tested on: LNCaP human prostate cancer cells; test: ALA-induced PpIX formation by LNCaP cells; format: cell-based
Experimental: ALA-induced PpIX formation by LNCaP human prostate cancer cells. The cells were incubated for four hours with 0.3 mM ALA after 72 hours of pretreatment with the synthetic androgen R1881 at concentrations between 10^−10 to 10^−6.
as §1

[6] = tested on: LNCaP tumors; test: PpIX formation in LNCaP tumors in vivo (confocal imaging of frozen sections); parameters: species or system SCID mice; conditions: 400 pg/kg R1881, after 4 days 250 mg/kg ALA i.p., tumors removed at 4 hours; 633 nm excitation
Experimental: SCID mice bearing LNCaP tumors were pretreated with a high dose of 400 pg/kg R1881 and after 4 days received 250 mg/kg ALA i.p. At 4 hours, the mice were sacrificed and the tumors removed. Frozen sections of the tumors were imaged on the confocal laser scanning microscope. Using 633 nm excitation, the sections of tumors from an untreated mouse (FIG. 5A) and an R1881-pretreated mouse (FIG. 5B) were imaged at the same instrument parameters.

[7] = cell line and regimen not stated
Experimental: as §1

[8] = PDT alone: 0.3 mM ALA 4 hours, no methotrexate
[9] = combined regimen: methotrexate 1 μg/ml 72 hours, 0.3 mM ALA 4 hours

For `NCC(=O)CCC(=O)O` [ALA], the “light dose for 50% level (colony formation)” value [1, 8] was 25 J/cm2, the “ALA-induced PpIX fluorescence signal across epidermal layers” value [2] was “increase of fluorescence signal from bottom to top epidermal layers” and the “light dose to reduce cell survival by 50% (MTT)” value [3, 8] was 20 J/cm2.

With `C[C@]1(O)CC[C@H]2[C@@H]3CCC4=CC(=O)CCC4=C3C=C[C@@]21C` [R1881] the “PPIX fluorescence in cells” value [4] was “strong PPIX fluorescence in almost all cells”, the “ALA-induced PpIX formation (% of cells without androgen treatment)” value ([5]; 72 hours pretreatment with R1881 10^−10 to 10^−6, then 0.3 mM ALA four hours) was “significant increase” and the “survival after PDT” value ([3]; 72 hours 10^−7 M R1881, 0.3 mM ALA four hours, 3-20 J/cm^2 of 514 nm light) was “Reduced survival”. For the same compound, the “survival after PDT” value ([3]; 72 hours 10^−7 M R1881, ALA 0.1 to 1.0 mM four hours, 10 J/cm^2 of 514 nm light) was “Reduced survival” and the “PpIX formation in tumors” value [6] was “increased PpIX formation”.

In the case of `CN(Cc1cnc2nc(N)nc(N)c2n1)c1ccc(C(=O)N[C@@H](CCC(=O)O)C(=O)O)cc1` [methotrexate], the “light dose for 50% level (colony formation)” value [1, 9] is reported as 2 J/cm2, the “increase in PpIX levels” value ([5]; methotrexate 1 μg/ml 72 hours, then 0.3 mM ALA 4 hours, mean+/−standard deviation) is reported as 4.1±1.1 fold and the “light dose to reduce cell survival by 50% (MTT)” value [3, 9] is reported as 2 J/cm2.

With `O=P1(N(CCCl)CCCl)NCCCO1` (stereo not drawn) [cyclophosphamide] the “chemotherapeutic effect (enhancement of PDT by pretreatment)” value [7] was “confirmed”.
